Measurements from EP3002287B1, “Thiochromeno[2,3-c]quinolin-12-one derivatives and their use as topoisomerase inhibitors” (National Defense Medical Center, priority 2014, dated 2016).

Assays:
[1] = tested on: MDA-MB-231/ATCC; assay: NCI in vitro 60-cell drug screen (SRB assay); format: cell-based; conditions: MDA-MB-231/ATCC (Breast cancer); 10^-5 molar concentration; 48 hours
[2] = tested on: A498; assay: NCI in vitro 60-cell drug screen (SRB assay); format: cell-based; conditions: A498 (Renal cancer); 10^-5 molar concentration; 48 hours
[3] = tested on: HCT-15; assay: NCI in vitro 60-cell drug screen (SRB assay); format: cell-based; conditions: HCT-15 (Colon cancer); 10^-5 molar concentration; 48 hours
[4] = tested on: ACHN; assay: NCI in vitro 60-cell drug screen (SRB assay); format: cell-based; conditions: ACHN (Renal cancer); 10^-5 molar concentration; 48 hours
[5] = tested on: SF-295; assay: NCI in vitro 60-cell drug screen (SRB assay); format: cell-based; conditions: SF-295 (CNS cancer); 10^-5 molar concentration; 48 hours
[6] = tested on: CCRF-CEM; assay: NCI in vitro 60-cell drug screen (SRB assay); format: cell-based; conditions: CCRF-CEM (Leukemia); 10^-5 molar concentration; 48 hours
[7] = tested on: MDA-MB-486; assay: NCI in vitro 60-cell drug screen (SRB assay); format: cell-based; conditions: MDA-MB-486 (Breast cancer); 10^-5 molar concentration; 48 hours
[8] = tested on: T-47D; assay: NCI in vitro 60-cell drug screen (SRB assay); format: cell-based; conditions: T-47D (Breast cancer); 10^-5 molar concentration; 48 hours
[9] = tested on: COLO 205; assay: NCI in vitro 60-cell drug screen (SRB assay); format: cell-based; conditions: COLO 205 (Colon cancer); 10^-5 molar concentration; 48 hours
[10] = tested on: HOP-92; assay: NCI in vitro 60-cell drug screen (SRB assay); format: cell-based; conditions: HOP-92 (Non-small cell lung cancer); 10^-5 molar concentration; 48 hours
[11] = tested on: UACC-257; assay: NCI in vitro 60-cell drug screen (SRB assay); format: cell-based; conditions: UACC-257 (Melanoma); 10^-5 molar concentration; 48 hours
[12] = tested on: SR; assay: NCI in vitro 60-cell drug screen (SRB assay); format: cell-based; conditions: SR (Leukemia); 10^-5 molar concentration; 48 hours
[13] = tested on: K-562; assay: NCI in vitro 60-cell drug screen (SRB assay); format: cell-based; conditions: K-562 (Leukemia); 10^-5 molar concentration; 48 hours
[14] = tested on: UACC-62; assay: NCI in vitro 60-cell drug screen (SRB assay); format: cell-based; conditions: UACC-62 (Melanoma); 10^-5 molar concentration; 48 hours
[15] = tested on: UO-31; assay: NCI in vitro 60-cell drug screen (SRB assay); format: cell-based; conditions: UO-31 (Renal cancer); 10^-5 molar concentration; 48 hours
[16] = tested on: CAKI-1; assay: NCI in vitro 60-cell drug screen (SRB assay); format: cell-based; conditions: CAKI-1 (Renal cancer); 10^-5 molar concentration; 48 hours
[17] = tested on: MCF7; assay: NCI in vitro 60-cell drug screen (SRB assay); format: cell-based; conditions: MCF7 (Breast cancer); 10^-5 molar concentration; 48 hours
[18] = tested on: IGROV1; assay: NCI in vitro 60-cell drug screen (SRB assay); format: cell-based; conditions: IGROV1 (Ovarian cancer); 10^-5 molar concentration; 48 hours
[19] = tested on: NCI-H322M; assay: NCI in vitro 60-cell drug screen (SRB assay); format: cell-based; conditions: NCI-H322M (Non-small cell lung cancer); 10^-5 molar concentration; 48 hours
[20] = tested on: HCC-2998; assay: NCI in vitro 60-cell drug screen (SRB assay); format: cell-based; conditions: HCC-2998 (Colon cancer); 10^-5 molar concentration; 48 hours
[21] = tested on: SK-MEL-5; assay: NCI in vitro 60-cell drug screen (SRB assay); format: cell-based; conditions: SK-MEL-5 (Melanoma); 10^-5 molar concentration; 48 hours
[22] = tested on: MDA-MB-435; assay: NCI in vitro 60-cell drug screen (SRB assay); format: cell-based; conditions: MDA-MB-435 (Melanoma); 10^-5 molar concentration; 48 hours
[23] = tested on: BT-549; assay: NCI in vitro 60-cell drug screen (SRB assay); format: cell-based; conditions: BT-549 (Breast cancer); 10^-5 molar concentration; 48 hours
[24] = tested on: KM12; assay: NCI in vitro 60-cell drug screen (SRB assay); format: cell-based; conditions: KM12 (Colon cancer); 10^-5 molar concentration; 48 hours
[25] = tested on: MOLT-4; assay: NCI in vitro 60-cell drug screen (SRB assay); format: cell-based; conditions: MOLT-4 (Leukemia); 10^-5 molar concentration; 48 hours
[26] = tested on: HOP-62; assay: NCI in vitro 60-cell drug screen (SRB assay); format: cell-based; conditions: HOP-62 (Non-small cell lung cancer); 10^-5 molar concentration; 48 hours
[27] = tested on: 60 cell lines; assay: NCI in vitro 60-cell drug screen (SRB assay), whole panel statistics; conditions: mean over the cell panel; 10^-5 molar concentration; 48 hours
[28] = tested on: SK-MEL-2; assay: NCI in vitro 60-cell drug screen (SRB assay); format: cell-based; conditions: SK-MEL-2 (Melanoma); 10^-5 molar concentration; 48 hours
[29] = tested on: M14; assay: NCI in vitro 60-cell drug screen (SRB assay); format: cell-based; conditions: M14 (Melanoma); 10^-5 molar concentration; 48 hours
[30] = tested on: MALME-3M; assay: NCI in vitro 60-cell drug screen (SRB assay); format: cell-based; conditions: MALME-3M (Melanoma); 10^-5 molar concentration; 48 hours
[31] = tested on: SF-268; assay: NCI in vitro 60-cell drug screen (SRB assay); format: cell-based; conditions: SF-268 (CNS cancer); 10^-5 molar concentration; 48 hours
[32] = tested on: U251; assay: NCI in vitro 60-cell drug screen (SRB assay); format: cell-based; conditions: U251 (CNS cancer); 10^-5 molar concentration; 48 hours
[33] = tested on: A549/ATCC; assay: NCI in vitro 60-cell drug screen (SRB assay); format: cell-based; conditions: A549/ATCC (Non-small cell lung cancer); 10^-5 molar concentration; 48 hours
[34] = tested on: SW-620; assay: NCI in vitro 60-cell drug screen (SRB assay); format: cell-based; conditions: SW-620 (Colon cancer); 10^-5 molar concentration; 48 hours
[35] = tested on: SK-MEL-28; assay: NCI in vitro 60-cell drug screen (SRB assay); format: cell-based; conditions: SK-MEL-28 (Melanoma); 10^-5 molar concentration; 48 hours
[36] = tested on: TK-10; assay: NCI in vitro 60-cell drug screen (SRB assay); format: cell-based; conditions: TK-10 (Renal cancer); 10^-5 molar concentration; 48 hours
[37] = tested on: HCT-116; assay: NCI in vitro 60-cell drug screen (SRB assay); format: cell-based; conditions: HCT-116 (Colon cancer); 10^-5 molar concentration; 48 hours

SMILES | Growth percent [1] [%] | Growth percent [2] [%] | Growth percent [3] [%] | Growth percent [4] [%] | Growth percent [5] [%] | Growth percent [6] [%] | Growth percent [7] [%] | Growth percent [8] [%] | Growth percent [9] [%] | Growth percent [10] [%] | Growth percent [11] [%] | Growth percent [12] [%] | Growth percent [13] [%] | Growth percent [14] [%] | Growth percent [15] [%] | Growth percent [16] [%] | Growth percent [17] [%] | Growth percent [18] [%] | Growth percent [19] [%] | Growth percent [20] [%] | also measured
O=c1c2cc(Cl)ccc2sc2c(N3CCN(c4ccccc4)CC3)nc3ccccc3c12 [Compound 12, 10-Chloro-6-(4-phenylpiperazin-1-yl)-12H-thiochromeno[2,3-c] quinolin-12-one] | 94.34 | 81.04 | 99.81 | 94.99 | 99.23 | 98.41 | 86.34 | 104.57 | 111.67 | 81.27 | 93.68 | 103.11 | 112.37 | 104.48 | 63.85 | 97.83 | 74.16 | 91.38 | 84.41 | 105.23 | Growth percent [21]: 103.57%; Growth percent [22]: 102.39%; Growth percent [23]: 123.95%; Growth percent [24]: 113.15%; Growth percent [25]: 107.23%; Growth percent [26]: 86.00%; Growth percent, Mean [27]: 99.30%; Growth percent [28]: 104.26%; Growth percent [29]: 104.02%; Growth percent [30]: 121.84%; Growth percent [31]: 103.82%; Growth percent [32]: 96.09%; Growth percent [33]: 98.54%; Growth percent [34]: 100.20%; Growth percent [35]: 104.22%; Growth percent [36]: 112.45%; Growth percent [37]: 105.36%
O=c1c2cc(Cl)ccc2sc2c(N3CCOCC3)nc3ccccc3c12 [Compound 13, 10-Chloro-6-morpholino-12H-thiochromeno[2,3-c]quinolin-12-one] | 71.53 | 94.15 | 93.81 | 82.54 | 93.62 | 88.02 | 39.67 | 80.00 | 99.24 | 60.43 | 110.91 | 88.91 | 81.18 | 87.86 | 73.11 | 90.00 | 50.59 | 80.90 | 88.41 | 108.75 | Growth percent [21]: 95.88%; Growth percent [22]: 102.07%; Growth percent [23]: 113.81%; Growth percent [24]: 88.68%; Growth percent [25]: 89.31%; Growth percent [26]: 70.77%; Growth percent, Mean [27]: 90.52%; Growth percent [28]: 98.77%; Growth percent [29]: 110.35%; Growth percent [30]: 118.84%; Growth percent [31]: 103.56%; Growth percent [32]: 98.58%; Growth percent [33]: 92.97%; Growth percent [34]: 96.18%; Growth percent [35]: 111.28%; Growth percent [36]: 86.24%; Growth percent [37]: 85.71%
